Measurements taken from the supplement of paper PMC10307832.

How the values were obtained:
Assay in all cases: relative viability (nuclei count vs DMSO), 5 days (fraction); higher = more cells survive
R406 + Trametinib = compound: COc1cc(Nc2ncc(F)c(Nc3ccc4c(n3)NC(=O)C(C)(C)O4)n2)cc(OC)c1OC [R406] + CC(=O)Nc1cccc(-n2c(=O)n(C3CC3)c(=O)c3c(Nc4ccc(I)cc4F)n(C)c(=O)c(C)c32)c1 [Trametinib] (partner 0.02 µM)
Outline: (§1)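 Nuclei were stained with Hoechst during a one-step fixation (final 0.05% Triton X-100, 1% formaldehyde, 1 ug/ml Hoechst) carried out 5 days after dosing, then counted on 4× images. The cells, lung cancer lines in 1536-well plates, had been dosed by pin tool the day after seeding with one drug alone or a fixed anchor-drug dose plus five library-drug doses (not always all listed) in √10 steps. Relative viability is the nuclei count in treated wells divided by that in vehicle wells, and each value is the median of duplicate plates.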

R406 + Navitoclax = compound: COc1cc(Nc2ncc(F)c(Nc3ccc4c(n3)NC(=O)C(C)(C)O4)n2)cc(OC)c1OC [R406] + CC1(C)CCC(c2ccc(Cl)cc2)=C(CN2CCN(c3ccc(C(=O)NS(=O)(=O)c4ccc(N[C@H](CCN5CCOCC5)CSc5ccccc5)c(S(=O)(=O)C(F)(F)F)c4)cc3)CC2)C1 [Navitoclax] (partner 0.5 µM)
Outline: as §1

R406 + Linsitinib = compound: COc1cc(Nc2ncc(F)c(Nc3ccc4c(n3)NC(=O)C(C)(C)O4)n2)cc(OC)c1OC [R406] + C[C@]1(O)C[C@@H](c2nc(-c3ccc4ccc(-c5ccccc5)nc4c3)c3c(N)nccn32)C1 [Linsitinib] (partner 1 µM)
Outline: as §1

R406 + Palbociclib = compound: COc1cc(Nc2ncc(F)c(Nc3ccc4c(n3)NC(=O)C(C)(C)O4)n2)cc(OC)c1OC [R406] + CC(=O)c1c(C)c2cnc(Nc3ccc(N4CCNCC4)cn3)nc2n(C2CCCC2)c1=O [Palbociclib] (partner 0.5 µM)
Outline: as §1

Cell Line	relative viability (R406 + Trametinib; first compound 0.08 µM)	relative viability (R406 + Trametinib; first compound 0.253 µM)	relative viability (R406 + Trametinib; first compound 0.8 µM)	relative viability (R406 + Trametinib; first compound 2.53 µM)	relative viability (R406 + Trametinib; first compound 8 µM)	relative viability (R406 + Navitoclax; first compound 0.08 µM)	relative viability (R406 + Navitoclax; first compound 0.253 µM)	relative viability (R406 + Navitoclax; first compound 0.8 µM)	relative viability (R406 + Navitoclax; first compound 2.53 µM)	relative viability (R406 + Navitoclax; first compound 8 µM)	relative viability (R406 + Linsitinib; first compound 0.08 µM)	relative viability (R406 + Linsitinib; first compound 0.253 µM)	relative viability (R406 + Linsitinib; first compound 0.8 µM)	relative viability (R406 + Linsitinib; first compound 2.53 µM)	relative viability (R406 + Linsitinib; first compound 8 µM)	relative viability (R406 + Palbociclib; first compound 0.08 µM)	relative viability (R406 + Palbociclib; first compound 0.253 µM)	relative viability (R406 + Palbociclib; first compound 0.8 µM)	relative viability (R406 + Palbociclib; first compound 2.53 µM)	relative viability (R406 + Palbociclib; first compound 8 µM)
EKVX	0.405	0.383	0.348	0.364	0.264	0.814	1.03	0.932	0.77	0.521	1.05	1.32	1.19	0.9	0.688	0.362	0.417	0.373	0.333	0.315
HOP-62	0.379	0.388	0.427	0.37	0.339	0.937	0.985	1.11	1.1	1.06	0.773	0.97	0.936	0.684	0.865	0.426	0.533	0.397	0.456	0.378
NCI-H2126	0.609	0.535	0.511	0.519	0.522	0.88	0.83	0.829	0.8	0.64	0.683	0.783	0.753	0.657	0.625	0.347	0.357	0.313	0.349	0.276
NCI-H1944	0.401	0.453	0.364	0.385	0.319	0.992	1.05	1.05	0.846	0.743	1.21	1.24	1.22	0.879	0.741	0.333	0.312	0.329	0.252	0.241
EPLC-272H	0.324	0.333	0.305	0.166	0.21	1.03	1.18	1.21	0.63	0.589	1.1	1.18	1.15	0.717	0.564	0.329	0.337	0.326	0.246	0.303
RERF-LC-KJ	0.833	0.918	1	0.753	0.715	1.09	0.64	1.03	0.738	0.842	0.848	0.846	1.03	0.657	0.695	1.04	1.19	1.07	0.883	0.86
PC-14	0.777	0.898	0.857	0.628	0.11	1.01	1.05	1.04	0.984	0.836	0.941	1.05	1.01	0.852	0.8	0.58	0.666	0.735	0.346	0.146
COR-L 105	0.444	0.497	0.432	0.459	0.395	0.858	0.755	1.02	0.805	0.558	0.968	1.13	0.879	0.705	0.736	0.374	0.386	0.39	0.316	0.33
NCI-H2405	0.584	0.699	0.615	0.447	0.299	0.823	0.844	0.928	0.691	0.156	0.916	0.89	1.01	0.731	0.221	0.52	0.561	0.517	0.364	0.2
NCI-H1395	0.979	1.02	0.998	0.687	0.568	1.18	1.18	1.49	0.881	0.947	1.02	1.26	1.18	0.866	0.727	0.609	0.663	0.652	0.47	0.551
NCI-H727	0.416	0.344	0.453	0.406	0.372	0.39	0.44	0.46	0.381	0.325	0.252	0.28	0.319	0.35	0.237	0.621	0.702	0.752	0.652	0.609
NCI-H1915	0.324	0.334	0.313	0.268	0.197	0.769	0.799	0.789	0.707	0.662	1.09	1.12	1.09	1.09	0.98	0.536	0.567	0.529	0.488	0.521
CAL-12T	0.343	0.351	0.378	0.312	0.175	1.16	1.21	1.26	1.05	1.06	0.806	0.909	0.943	0.495	0.675	0.425	0.612	0.549	0.142	0.158
NCI-H441	0.462	0.452	0.539	0.283	0.184	–	0.584	0.818	–	0.446	0.377	0.609	0.662	0.411	0.47	0.214	0.191	0.204	0.137	0.118
LXF-289	0.675	0.694	0.68	0.67	0.672	0.942	1.01	1	0.931	0.251	0.922	0.967	0.994	0.989	0.295	0.589	0.621	0.623	0.596	0.596
NCI-H520	0.665	0.792	0.935	0.258	0.124	1.02	1.09	1.05	0.636	0.251	0.897	1.09	1.07	0.486	0.295	0.173	0.209	0.244	0.164	0.108
NCI-H2009	0.275	0.275	0.323	0.213	0.136	1.21	1.23	1.25	1.16	1.03	1.09	1.3	1.19	1.18	1.07	0.232	0.212	0.265	0.192	0.114
201T	0.696	0.72	0.726	0.674	0.679	1.16	1.15	1.17	1.19	1.18	0.995	1.06	1.07	0.915	0.824	0.375	0.399	0.349	0.394	0.285
NCI-H23	0.288	0.376	0.444	0.399	0.128	0.712	0.884	1.07	0.733	0.518	0.494	0.7	0.7	0.56	0.459	0.496	0.539	0.629	0.454	0.155
LOU-NH91	0.804	0.8	0.759	0.621	0.549	0.715	0.701	0.752	0.318	0.313	0.992	0.882	0.982	0.602	0.521	0.532	0.547	0.499	0.552	0.538
NCI-H2085	0.591	0.634	0.545	0.498	0.226	1.13	1.16	1.28	1.01	0.667	0.899	1.08	0.825	0.971	0.707	0.468	0.459	0.45	0.455	0.36
COR-L23	0.627	0.669	0.682	0.217	0.338	0.951	1.04	1.1	0.836	0.451	0.886	1.04	1.04	0.731	0.405	0.224	0.346	0.342	0.166	0.157
BEN	0.974	0.992	1.24	1.17	0.897	0.0867	0.0733	0.0583	0.0663	0.0726	0.946	1.22	0.981	0.877	0.708	0.439	0.502	0.495	0.561	0.422
LK-2	0.675	1	0.718	0.706	0.447	0.726	1.06	0.889	0.527	0.455	0.513	0.573	0.641	0.379	0.11	0.592	0.679	0.854	0.574	0.542
NCI-H322M	0.515	0.532	0.452	0.475	0.421	1.13	1.23	1.28	0.862	0.534	0.879	0.814	0.983	0.523	0.472	0.463	0.452	0.468	0.456	0.354
NCI-H1666	0.901	0.866	0.943	0.955	0.679	0.627	0.879	0.932	0.941	0.413	0.837	0.792	0.872	0.735	0.449	0.653	0.662	0.678	0.675	0.638
NCI-H1993	0.442	0.542	0.518	0.679	0.573	0.974	0.98	0.848	0.78	0.7	0.762	0.656	0.709	0.675	0.703	0.651	0.667	0.611	0.683	0.607
NCI-H1975	0.315	0.307	0.287	0.112	0.201	1.02	1.2	1.19	0.503	0.237	0.875	1.06	0.981	0.467	0.186	0.537	0.734	0.644	0.115	0.192
HCC-44	1.04	1.1	1.12	0.984	0.966	0.915	1.04	1.05	1.04	0.316	0.62	0.729	0.758	0.688	0.305	0.945	0.982	0.858	1.02	1.16
